# Experimental data as given in publication PMC11656837, “pH-Responsive Peptide Nanoparticles Deliver Macromolecules to Cells via Endosomal Membrane Nanoporation” (ACS Nano, 2024).
# Legend:
# HeLa cells [1] = experiment: Cytosolic delivery of AF488-dextran 10 kDa (confocal microscopy); type: cell-based, human
# Method: Just before imaging, cell nuclei were stained with Hoechst 33342 (blue); the external AF488-dextran was washed away, and AF647-dextran (lavender) was added to mark the extracellular spaces and cell boundaries. […] Individual intensity scans across single cells, indicated by the yellow arrows, are plotted in Figure 5E,F as examples. To measure cytosolic dextran concentrations, dextran intensity was measured in the external spaces, where it is at background levels and in puncta-free, nuclear/cytosolic areas of each cell.
# These experiments were done using a very low solution concentration of 0.1 μM AF488-dextran 10 kDa to minimize any possible self-quenching in endosomes and to minimize any osmotic effect of the dextran on endosomal stability. […] Before imaging, the AF488-dextran was washed off, and Cascade Blue dextran 10 kDa was added to mark the external spaces and cell boundaries. […] Dextran delivered to the cytosol and nucleus, which was the only intensity that we measured in Figure 6A,B, was identified by its diffuse and uniform intensity in the nucleus and cytosol of each cell. In Figure 6E, cytosolic and nuclear concentrations of dextran are expressed as a percent of the external concentration incubated with cells based on comparison to a standard curve of fluorescence intensity versus concentration that was measured separately at the same instrument settings.
# After overnight incubation, external AF488-dextran (green) was washed off and replaced with Cascade Blue dextran (blue) or AF647-dextran (lavender) just before imaging to mark the external spaces and cell boundaries. Cells were also treated with Hoechst 33342 (blue) to stain the nuclei. Quantitation was performed by generating a standard curve from microscopy images of solutions of AF488-dextran of known concentrations. For quantification, we noted the intensity of the cell nuclei. Multiple small circular areas of interest of a preset size were selected in cells in areas that were in the nucleus or had no obvious puncta. The same was done for the standard curve images. The fluorescence of each point of interest was quantified using the Nikon Elements software, and the concentration was determined using a standard curve and expressed as a percent of the initial incubating concentration.
# HeLa cells [2] = experiment: Cytosolic delivery of green fluorescent protein (confocal microscopy); type: cell-based, human; settings: 25 μM peptide, 10 μM external GFP, overnight, 37 °C
# Method: To validate the dextran delivery experiments, we also delivered two separate fluorescent proteins of ∼27 kDa molecular weight to the cytosol of two different cell lines using C16-D-pHD108 (see Figure 7). HeLa cells were incubated overnight with 10 μM green fluorescent protein (GFP), and Chinese Hamster Ovary (CHO) cells were incubated overnight with 3.5 μM yellow fluorescent protein (YFP), with and without 25 μM C16-D-pHD108. Just before imaging, external GFP and YFP were washed off and replaced with TAMRA-dextran (red) or fluorescent protein mTurquoise (blue), respectively, to mark the cell boundaries and extracellular spaces. […] These cells, especially those incubated with the higher 10 μM concentration of GFP, show endosomes with entrapped FP, just as we observed for dextran delivery. […] The apparent nuclear concentration of GFP in cells incubated with GFP but no peptide is indistinguishable from the background. […]
# For fluorescent protein or fluorescein-(Fab)2 fragment delivery, HeLa cells were incubated at 37 °C overnight in the presence of GFP with and without C16-D-pHD108 and CHO cells were incubated at 37 °C overnight with YFP in the presence and absence of C16-D-pHD108. […] Quantitation of delivered protein was performed by comparing measured intensities from microscopy images of standard protein solutions of known concentrations.
# [3] = Particle size by quasielastic / dynamic light scattering; type: physicochemical; settings: QLS/DLS
# Method: To test this hypothesis, we next studied the C16-D-pHD108 particle size in solution using quasielastic light scattering (QLS). Samples of C16-D-pHD108 were dissolved in PBS with 138 mM NaCl, PBS with 69 mM NaCl, or PO4 buffer with no added salt. Most measurements were made at 25 μM peptides, but we tested concentrations between 25 and 200 μM peptides. Buffer without peptides gave a very low scattering intensity and no coherent particle peaks. […] Salt concentrations of 0, 69, and 138 mM had only small effects on the nanoparticle size. The median particle size for all samples was ∼120 nm. Particle size distributions for 25 μM C16-D-pHD108 are shown in Figure 8C at several salt concentrations for independently prepared samples. In Figure 8D, the light scattering intensity is shown to be a linear function of peptide concentration, with a Y-intercept at zero.
# Dynamic light scattering was performed by using a Malvern Zetasizer Nano ZS90 DLS instrument. After HPLC purification, 10 nmol aliquots of C16-D-pHD108 were dried in silanized Eppendorf tubes. Peptide readily dissolved in PBS buffer and other aqueous buffers and remained stable in solution. For DLS samples, C16-D-pHD108 was dissolved in PBS with 138 mM NaCl, in PBS with 69 mM NaCl (50% of normal), or in a PO4 buffer with no added salt. Most measurements were made at 25 μM peptide, but we tested concentrations between 25 and 200 μM peptide. […]
# [4] = Tryptophan fluorescence emission (water exposure of Trp19); type: physicochemical; settings: buffer pH 7, no vesicles, 25 μM peptide in PBS
# Text: Here, in Figure 8, we examine the solution behavior of C16-D-pHD108 using tryptophan fluorescence to measure the water exposure of the tryptophan residue at position 19, Figure 1, and using circular dichroism spectroscopy to measure the secondary structure.
# In Figure 8B, we show tryptophan emission spectra for the same three samples.
smiles,measurement,setting,value
CCCCCCCCCCCCCCCC(=O)NCC(=O)N[C@@H](C(=O)NCC(=O)N[C@H](CCC(=O)O)C(=O)N[C@@H](C(=O)N[C@H](CC(C)C)C(=O)N[C@H](Cc1c[nH]cn1)C(=O)N[C@H](CCC(=O)O)C(=O)N[C@H](CC(C)C)C(=O)N[C@H](C)C(=O)N[C@H](CCC(=O)O)C(=O)NCC(=O)N[C@H](CC(C)C)C(=O)N1CCC[C@@H]1C(=O)N[C@H](CCC(=O)O)C(=O)N[C@H](CC(C)C)C(=O)N[C@H](CCC(N)=O)C(=O)N[C@H](CCC(=O)O)C(=O)N[C@H](Cc1c[nH]c2ccccc12)C(=O)N[C@@H](C(=O)N[C@H](Cc1c[nH]cn1)C(=O)N[C@H](C)C(=O)N[C@H](C)C(=O)N[C@H](CCC(N)=O)C(=O)N[C@H](CCC(N)=O)C(=O)N[C@H](CC(C)C)C(N)=O)[C@H](C)CC)C(C)C)[C@H](C)CC [C16-D-pHD108],cytosolic dextran concentration,"HeLa cells [1]; 3 μM peptide, 0.1 μM AF488-dextran 10 kDa, overnight, 37 °C",Low but statistically significant
same,"cytosolic dextran concentration, average, percent of applied external concentration","HeLa cells [1]; 25 μM peptide, 0.1 μM AF488-dextran 10 kDa, overnight, 37 °C, ~50 cells",about 12%
same,dextran staining of nucleus and cytosol,"HeLa cells [1]; 25 μM peptide, 25 μM AF488-dextran 10 kDa, overnight, 37 °C",diffusely and uniformly stained with dextran
same,delivery of dextran to the cytosol at 4 °C,"HeLa cells [1]; 25 μM peptide, 4 °C",does not enable any measurable delivery of dextran to the cytosol
same,plasma membrane permeabilization (entry of Cascade Blue dextran added before imaging),"HeLa cells [1]; 25 μM peptide, 37 °C",not permeabilized
same,"cytosolic delivery of AF488-dextran, C16-L-pHD108 compared with C16-D-pHD108","HeLa cells [1]; HeLa, overnight, 37 °C",significantly more active
same,"GFP concentration delivered to cell cytosol, median",HeLa cells [2],about 2 μM
same,"GFP delivered to cytosol, median as percent of the external concentration",HeLa cells [2],~20%
same,stability of particle size distributions,"[3]; after sample preparation, pH 7",stable up to a week
same,median particle size / average diameter,"[3]; all samples, buffer pH 7",around 120 nm
same,tryptophan fluorescence emission maximum,[4],330 nm
